From PubChem BioAssay (NCI)
Several values for one entry are separate records, joined by “and”; a condition that tells them apart may be missing. Identical values can stand only once.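 48-hour exposure; five concentrations; linearly interpolated endpoints. GI50 marks 50% less growth. Definition used: TGI = concentration required for complete inhibition of growth.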

How the values were obtained:
Assay in all cases: inhibition of tumour cell growth, NCI panel, 48 h
[1] = system: A549 NSCLC
[2] = system: IGROV1 ovarian
[3] = system: KM12 colon
[4] = system: M14 melanoma
[5] = system: MALME-3M melanoma
[6] = system: MOLT-4 leukemia
[7] = system: NCI-H460 lung
[8] = system: OVCAR-4 ovarian
[9] = system: RPMI-8226 leukemia
[10] = system: SK-MEL-5 melanoma

SMILES | GI50 [1] | TGI [1] | GI50 [2] | TGI [2] | GI50 [3] | TGI [3] | GI50 [4] | TGI [4] | GI50 [5] | TGI [5] | GI50 [6] | TGI [6] | GI50 [7] | TGI [7] | GI50 [8] | TGI [8] | GI50 [9] | TGI [9] | GI50 [10] | TGI [10]
COc1cc(-c2nc(SCC(=O)Nc3ccc(C(C)=O)cc3)[nH]c(=O)c2C#N)cc(OC)c1OC | > 100 µM | > 100 µM | 53.4 µM | > 100 µM | 63.6 µM | > 100 µM | 37.4 µM | > 100 µM | 48.1 µM | > 100 µM | 36.4 µM | > 100 µM | 39.1 µM | > 100 µM | 82.9 µM | > 100 µM | 29.9 µM | > 100 µM | 31.9 µM | > 100 µM
COc1cccc(Cn2cc3c(c2)-c2oncc2CC3)c1 | 0.559 µM | > 56.1 µM | 0.801 µM | > 100 µM | 0.379 µM | 3.02 µM | 0.374 µM | > 48.2 µM | 0.915 µM | 80.1 µM | 0.508 µM | > 21.7 µM | 0.338 µM | 4.1 µM | 1.3 µM | > 85.4 µM | 0.365 µM |  | 0.44 µM | 3.09 µM
CC(C)c1cc(CNc2nc(Nc3cc(C4CC4)[nH]n3)cc(N3CCN(C)CC3)n2)on1 |  | > 10 µM and 11.8 µM | 0.462 µM and 0.175 µM | 4.94 µM and 7.13 µM |  | > 10 µM and 10.7 µM |  | > 10 µM and 2.51 µM | 1.61 µM and 0.276 µM | > 10 µM and 2.96 µM | 2.71 µM and 0.477 µM | > 10 µM and 8.44 µM |  | > 10 µM and 1.42 µM | 2.14 µM and 0.731 µM | > 10 µM and 4.57 µM | 8.33 µM and 1.7 µM | > 10 µM and 5.76 µM | > 10 µM and 1.32 µM | > 10 µM and 4.72 µM
CCCCCC(=O)OCC(=O)O[C@@H]1C[C@]2(C(C)C)O[C@@]1(C)[C@@H]1CC[C@@H](C)[C@H]1[C@@H]2OC(=O)/C=C/c1ccccc1 | > 60.3 µM | > 100 µM | > 33.4 µM | > 55.8 µM | > 78.5 µM | > 100 µM | > 53.4 µM | > 100 µM | > 35.4 µM | > 57 µM | > 45.5 µM | > 100 µM | > 60.6 µM | > 94.8 µM | 26.5 µM | > 71.5 µM | 43.3 µM | > 100 µM | 42.5 µM | > 77.4 µM
CCc1ccccc1-n1c2nc(=O)n(C)c(=O)c-2nc2ccccc21 |  | 27.6 µM |  | 35.4 µM |  | 34.2 µM |  | 20.8 µM |  | 18.2 µM |  | 35.4 µM |  | 20.8 µM |  | 18.2 µM |  | 58.7 µM |  | 16.8 µM
CCOC(=O)N1C/C(=C/c2ccc(OC)cc2)C(=O)/C(=C/c2ccc(OC)cc2)C1 | 2.33 µM | 6.96 µM | 2.44 µM | > 21.2 µM | 0.946 µM | 2.5 µM | 2.11 µM | 5.2 µM | 4.76 µM | > 33.9 µM | 3.99 µM | > 100 µM | 3.13 µM | > 100 µM | 2.77 µM | > 31 µM | 0.211 µM | 1.6 µM | 1.6 µM | 3.17 µM
O=C(N/C(=C\c1ccc(Br)cc1)c1nc2ccccc2s1)c1ccccc1 |  | > 100 µM |  | > 100 µM |  | > 100 µM |  | > 100 µM |  | > 100 µM |  | > 100 µM |  | > 100 µM |  | > 100 µM |  | > 100 µM |  | > 100 µM
